Results published in ChEMBL document CHEMBL4428111, “Antiplasmodial activity of alkyl-substituted 1,2-dioxetanes against Plasmodium falciparum” (Bioorg Med Chem Lett, 2016).
Values after ≈ are worked out from the molar mass of the structure shown.

How the values were obtained:
Plasmodium falciparum [1] = test: Antiplasmodial activity against chloroquine-resistant/mefloquine-sensitive Plasmodium falciparum W2 schizonts infected in human erythrocytes assessed as inhibition of parasite invasion at 10^-9 mol/L after 24 hrs by Diff-Quick staining based microscopic analysis relative to control; format: functional; conditions: W2, 24 h
Plasmodium falciparum [2] = test: Antiplasmodial activity against chloroquine-resistant/mefloquine-sensitive Plasmodium falciparum W2 schizonts infected in human erythrocytes assessed as parasite invasion after 24 hrs by Diff-Quick staining based microscopic analysis (reference value: 15.26 +/- 2.13%); format: functional
Plasmodium falciparum [3] = test: Antiplasmodial activity against chloroquine-resistant/mefloquine-sensitive Plasmodium falciparum W2 schizonts infected in human erythrocytes assessed as inhibition of parasite invasion at 10^-4 mol/L after 24 hrs by Diff-Quick staining based microscopic analysis relative to control; format: functional; conditions: W2, 24 h
Plasmodium falciparum [4] = test: Antiplasmodial activity against chloroquine-resistant/mefloquine-sensitive Plasmodium falciparum W2 schizonts infected in human erythrocytes assessed as inhibition of parasite invasion at 10^-12 mol/L after 24 hrs by Diff-Quick staining based microscopic analysis relative to control; format: functional; conditions: W2, 24 h
Plasmodium falciparum [5] = test: Antiplasmodial activity against chloroquine-resistant/mefloquine-sensitive Plasmodium falciparum W2 schizonts infected in human erythrocytes assessed as inhibition of parasite invasion after 24 hrs by Diff-Quick staining based microscopic analysis; format: functional, organism-based; conditions: W2, 24 h
Plasmodium falciparum [6] = test: Antiplasmodial activity against chloroquine-resistant/mefloquine-sensitive Plasmodium falciparum W2 schizonts infected in human erythrocytes assessed as inhibition of parasite invasion at 10^-7 mol/L after 24 hrs by Diff-Quick staining based microscopic analysis relative to control; format: functional; conditions: W2, 24 h
Erythrocyte [7] = test: Hemolytic activity against human RBC assessed as reduction in hemoglobin release at 10^-8 M after 24 hrs by spectrophotometric method relative to control; format: ADME, cell-based; design: scale not given: the % may be the effect or the level left; conditions: 0.01 µM
Plasmodium falciparum [8] = test: Antiplasmodial activity against chloroquine-resistant/mefloquine-sensitive Plasmodium falciparum W2 schizonts infected in human erythrocytes assessed as inhibition of parasite invasion at 10^-10 mol/L after 24 hrs by Diff-Quick staining based microscopic analysis relative to control; format: functional; conditions: W2, 24 h
Erythrocyte [9] = test: Hemolytic activity against human RBC assessed as reduction in hemoglobin release after 24 hrs by spectrophotometric method; format: ADME, cell-based
Plasmodium falciparum [10] = test: Antiplasmodial activity against chloroquine-resistant/mefloquine-sensitive Plasmodium falciparum W2 schizonts infected in human erythrocytes assessed as inhibition of parasite invasion at 10^-6 mol/L after 24 hrs by Diff-Quick staining based microscopic analysis relative to control; format: functional; conditions: W2, 24 h
Plasmodium falciparum [11] = test: Antiplasmodial activity against chloroquine-resistant/mefloquine-sensitive Plasmodium falciparum W2 schizonts infected in human erythrocytes assessed as inhibition of parasite invasion at 10^-8 mol/L after 24 hrs by Diff-Quick staining based microscopic analysis relative to control; format: functional; conditions: W2, 24 h
Plasmodium falciparum [12] = test: Antiplasmodial activity against chloroquine-resistant/mefloquine-sensitive Plasmodium falciparum W2 schizonts infected in human erythrocytes assessed as inhibition of parasite invasion at 10^-5 mol/L after 24 hrs by Diff-Quick staining based microscopic analysis relative to control; format: functional; conditions: W2, 24 h
[13] = Therapeutic index, ratio of MHC for human RBC to MIC for chloroquine-resistant/mefloquine-sensitive Plasmodium falciparum W2 schizonts infected in human erythrocytes; format: toxicity, cell-based; conditions: read-out: TI
Plasmodium falciparum [14] = test: Antiplasmodial activity against chloroquine-resistant/mefloquine-sensitive Plasmodium falciparum W2 schizonts infected in human erythrocytes assessed as inhibition of parasite invasion after 24 hrs by Diff-Quick staining based microscopic analysis relative to artemisinin; format: functional
Plasmodium falciparum [15] = test: Antiplasmodial activity against chloroquine-resistant/mefloquine-sensitive Plasmodium falciparum W2 schizonts infected in human erythrocytes assessed as inhibition of parasite invasion at 10^-11 mol/L after 24 hrs by Diff-Quick staining based microscopic analysis relative to control; format: functional; conditions: W2, 24 h
Plasmodium falciparum [16] = test: Antiplasmodial activity against chloroquine-resistant/mefloquine-sensitive Plasmodium falciparum W2 schizonts infected in human erythrocytes assessed as inhibition of parasite invasion at 10^-14 mol/L after 24 hrs by Diff-Quick staining based microscopic analysis relative to control; format: functional; conditions: W2, 24 h

Row | Compound | inhibition at 0.001 µM (Plasmodium falciparum [1]) [%] | Activity (Plasmodium falciparum [2]) [%] | inhibition at 100 µM (Plasmodium falciparum [3]) [%] | inhibition at 1 pM (Plasmodium falciparum [4]) [%] | IC50 (Plasmodium falciparum [5]) [nM] | MIC (Plasmodium falciparum [5]) [nM] | inhibition at 0.1 µM (Plasmodium falciparum [6]) [%] | Activity (Erythrocyte [7]) [%] | inhibition at 0.0001 µM (Plasmodium falciparum [8]) [%] | MHC (Erythrocyte [9]) | inhibition at 1 µM (Plasmodium falciparum [10]) [%] | inhibition at 0.01 µM (Plasmodium falciparum [11]) [%] | inhibition at 10 µM (Plasmodium falciparum [12]) [%] | selectivity ratio [13] | fold change (FC) (Plasmodium falciparum [14]) | inhibition at 10 pM (Plasmodium falciparum [15]) [%] | inhibition at 10 fM (Plasmodium falciparum [16]) [%]
1 | C[C@@H]1CC[C@H]2[C@@H](C)C(=O)O[C@@H]3O[C@@]4(C)CC[C@@H]1[C@]32OO4 [ARTEMISININ] | 52.3 to 54 | 5.58 | 100 | 38.5 to 40.6 | 10 to 20 | 0.001 (≈ 0.000282 ng/mL) | 82.2 to 85.4 | 1.5 | 43.1 to 48.7 | 1 ×10⁻⁴ M | 99 to 100 | 63.4 to 67.4 |  |  |  |  | 
2 | CC1(C)OOC1(C)C |  | 9.83 |  | 16.7 to 17.4 | 45 | 0.001 (≈ 0.000116 ng/mL) | 60.2 to 60.3 | 1.4 | 23.4 to 25.6 | 1 ×10⁻⁵ M | 74.7 to 79.4 | 35.6 to 36.3 | 81 to 84 | 1e+07 | 0.45 |  | 
3 | C1C2CC3CC1CC(C2)C31OOC12C1CC3CC(C1)CC2C3 (configuration not stated) | 53.4 to 54.4 | 6.01 |  | 20.5 to 21.2 | 0.19 |  |  | 2 | 36.2 to 38.8 | 1 ×10⁻⁶ M | 65.6 to 67 | 64 to 65.8 |  |  | 105 | 24.6 to 25.4 | 16.7 to 18.4
